This assay deals with T1, LecA (Pseudomonas aeruginosa, UniProt Q05097).
T1 construct: made in house; host or cells: E. coli BL21 (DE3), plasmid pET25pa11
The assay is described as follows: biochemical. Type of assay: binding. The procedure:
Therefore, we focused our attention on commercially available nitro‐catechols. Prominent derivatives are inhibitors of the enzyme catechol‐O‐methyltransferase (COMT) and approved drugs for the treatment of Parkinson's disease. Four commercial COMT inhibitors were thus evaluated in a previously reported competitive binding assay based on fluorescence polarisation (FP, Table 1, Figure 1).^[ [32] ^]
The competitive binding assay was performed in analogy to Joachim et al.^[2] 10 µL of a solution containing LecA (40 µM) and sulfo-Cy5-Gal (20 nM, synthesis described in Kuhaudomlarp, Siebs et al.^[5]) in TBS/Ca buffer (20 mM Tris, 147 mM NaCl, 2.6 mM KCl at pH 7.4 supplemented with 1 mM CaCl2) were distributed in into wells of a black 384-well microtiter plate (Greiner Bio-One, Germany, cat no 781900). Then, 10 µL of serial dilutions of compounds (3 mM to 1.5 µM, dilution factor 0.5) in TBS/Ca with 40% DMSO were added in technical triplicates. Final concentrations after mixing were the following: 1.5 mM – 0.73 µM compound, 20 µM LecA, 10 nM sulfo-Cy5-Gal and 20% DMSO. The plate was sealed (EASYseal, Greiner Bio-One, cat no 676001), briefly centrifuged and incubated at room temperature in the dark under shaking conditions. Fluorescence intensity was measured after 1 h and 4 h using a PheraStar FS plate reader (BMG Labtech GmbH, Germany) with spectral filters for excitation at 590 nm and emission at 675 nm and polarization was calculated after blank values of 20 µM LecA in TBS/Ca buffer with 20% DMSO were subtracted from the test compounds. The data were analysed using the four-parameter variable slope model of the MARS Data Analysis software. The top and bottom plateau were assigned based on the control compound methyl α-d-galactoside and the data was reanalysed with these fixed values. If not mentioned otherwise, the experiment was repeated at least three times for each compound and the average and standard deviation are given. In case Triton X-100 was used it was added to the TBS/Ca buffer before the assay.

Where [1] appears, read: IC50, extended dose-response analysis, 20% DMSO, no 2-mercaptoethanol, three experiments.
Setting [2] is: IC50 in presence of 0.057% Triton X-100, FP assay, 0.057% Triton X-100, one replicate.
The mark [3] stands for this setting: LecA inhibition, competitive binding assay (FP), tested up to 1.5 mM, n ≥ 2.
[4] abbreviates: IC50 in presence of 0.01% Triton X-100, FP assay, 0.01% Triton X-100, one replicate.

47 molecules from article PMC12684298, “The Parkinson's Disease Drug Tolcapone and Analogues are Potent Glycomimetic Lectin Inhibitors of Pseudomonas aeruginosa LecA” (Angewandte Chemie (International Ed. in English), 2025) can be followed below.

A value given as a limit tells only on which side of the number the result lay.

T1 sequence (Q05097 whole entry): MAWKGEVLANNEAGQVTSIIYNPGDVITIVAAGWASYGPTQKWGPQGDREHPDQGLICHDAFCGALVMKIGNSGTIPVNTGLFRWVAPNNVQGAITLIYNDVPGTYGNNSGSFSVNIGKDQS

`CC(C)(C)COC(=O)c1cccc(C(=O)c2cc(O)c(O)c([N+](=O)[O-])c2)c1` [RO0626777] yielded an IC50 under setting [1] of 206 µM.

In the case of `Cc1c(C(=O)c2cc(O)c(O)c([N+](=O)[O-])c2)[nH]c2ccccc12` [RO0403335], it took 434 µM to reach half-maximal inhibition under setting [1] (IC50).

`O=C(c1cccc(F)c1)c1cc(O)c(O)c([N+](=O)[O-])c1` [RO0412713] yielded an IC50 under setting [1] of 675 µM.

Consider `Cc1ccc(C(=O)c2cc(O)c(O)c(S(=O)(=O)C(F)(F)F)c2)cc1` [RO0616411], for which the IC50 under setting [1] was 338 µM. Molecule `CCCN(CCC)C(=O)c1cccc(C(=O)c2cc(O)c(O)c([N+](=O)[O-])c2)c1` [RO0621116] returned an IC50 under setting [1] of 173 µM. Under setting [1], `CC(C)OC(=O)c1cccc(C(=O)c2cc(O)c(O)c([N+](=O)[O-])c2)c1` [RO0621109] displayed an IC50 of 156 µM.

Under setting [1], `O=C(c1ccncc1)c1cc(O)c(O)c([N+](=O)[O-])c1` [RO0403499] showed an IC50 of 597 µM. Same read-out and setting: the result for `N#Cc1ccccc1C(=O)c1cc(O)c(O)c([N+](=O)[O-])c1` [RO0413268] reads 214 µM; that for `O=C(C(=O)c1cc(O)c(O)c([N+](=O)[O-])c1)c1ccccc1` [RO0621161], 153 µM.

`O=C(c1cc(O)c(O)c([N+](=O)[O-])c1)c1ccccc1C(F)(F)F` [RO0413162] returned an IC50 under setting [1] of 128 µM. Molecule `CCCCOC(=O)c1cccc(C(=O)c2cc(O)c(O)c([N+](=O)[O-])c2)c1` [RO0626778] came in with an IC50 under setting [1] of 117 µM. `CCCCCOC(=O)c1ccc(C(=O)c2cc(O)c(O)c([N+](=O)[O-])c2)cc1` [compound 35]: the IC50 is 72 µM under setting [1] and 66 µM under setting [2]. Turning to `CC(=O)C(=Cc1cc(O)c(O)c([N+](=O)[O-])c1)C(C)=O` [compound 1, Nitecapone, reference compound], the IC50 entry is “no inhibition” under setting [3] and “inactive” (LecA inhibition, competitive binding assay (FP), tested up to 1.5 mM, n ≥ 2, listed as Nitecapone). For `CC(O)CCOC(=O)c1cccc(C(=O)c2cc(O)c(O)c([N+](=O)[O-])c2)c1` (stereo not drawn) [RO0621239], the IC50 under setting [1] was found to be 192 µM.

Regarding `CCCNC(=O)c1ccc(C(=O)c2cc(O)c(O)c([N+](=O)[O-])c2)cc1` [RO0620570], the half-maximal inhibitory concentration (IC50) under setting [1] was determined as 347 µM.

In turn, `CCCCNC(=O)c1cccc(C(=O)c2cc(O)c(O)c([N+](=O)[O-])c2)c1` [RO0621006] returned an IC50 under setting [1] of 283 µM. Same read-out and setting: the result for `COC(=O)c1cccc(C(=O)c2cc(O)c(O)c([N+](=O)[O-])c2)c1` [RO0620808] reads 279 µM. With `CCN(CC)C(=O)/C(C#N)=C/c1cc(O)c(O)c([N+](=O)[O-])c1` [compound 2, Entacapone, reference compound], the IC50 entry under setting [3] is given as “no inhibition” and the IC50 entry (LecA inhibition, competitive binding assay (FP), tested up to 1.5 mM, n ≥ 2, listed as Entacapone) is “inactive”. With `CCN(CC)C(=O)c1ccc(C(=O)c2cc(O)c(O)c([N+](=O)[O-])c2)cc1` [RO0620573], 438 µM corresponded to half-maximal inhibition under setting [1] (IC50). Same read-out and setting: the same measure for `O=[N+]([O-])c1cc(-c2cn3ncsc3n2)cc(O)c1O` [RO0199733]: above 1500 µM. `O=C(NCc1ccccc1)c1cccc(C(=O)c2cc(O)c(O)c([N+](=O)[O-])c2)c1` [RO0626786] came in with an IC50 under setting [1] of 356 µM. `COCCOCc1ccc(C(=O)c2cc(O)c(O)c([N+](=O)[O-])c2)cc1` [RO0624122] had an IC50 under setting [1] of 289 µM.

`CCCN(CCC)C(=O)c1c(Br)cc(O)c(O)c1[N+](=O)[O-]` [RO0627603] yielded an IC50 under setting [1] of 285 µM.

Take `O=C(c1cc(O)c(O)c([N+](=O)[O-])c1)c1ccnc2ccccc12` [RO0405919]: under setting [1], the IC50 turned out to be 174 µM. With `Cc1c(C(=O)c2cc(O)c(O)c([N+](=O)[O-])c2)[nH]c2ccc(Br)cc12` [compound 30], the IC50 was 43 µM under setting [1] and 59 µM under setting [4]. On to `CCOC(=O)c1cccc(C(=O)c2cc(O)c(O)c([N+](=O)[O-])c2)c1` [RO0620809], for which the IC50 under setting [1] is 244 µM.

For the molecule `Cc1c(Cl)c(C)[n+]([O-])c(Cl)c1-c1noc(-c2cc(O)c(O)c([N+](=O)[O-])c2)n1` [compound 3, Opicapone, reference compound], the IC50 (IC50, LecA inhibition, competitive binding assay (FP), tested up to 1.5 mM, n ≥ 2) turned out to be 842 ± 134 µM. Under setting [1], `CCN(CC)C(=O)c1cccc(C(=O)c2cc(O)c(O)c([N+](=O)[O-])c2)c1` [RO0621115] yielded an IC50 of 229 µM.

The molecule `CCCNC(=O)c1cccc(C(=O)c2cc(O)c(O)c([N+](=O)[O-])c2)c1` [RO0621005] returned an IC50 under setting [1] of 422 µM.

In turn, `O=C(NCC1CC1)c1cccc(C(=O)c2cc(O)c(O)c([N+](=O)[O-])c2)c1` [RO0621004] came in with an IC50 under setting [1] of 363 µM. Same read-out and setting: the result for `Cc1ccccc1C(=O)c1cc(O)c(O)c([N+](=O)[O-])c1` [RO0412734] reads 116 µM. For `O=C(OCc1ccccc1)c1ccc(C(=O)c2cc(O)c(O)c([N+](=O)[O-])c2)cc1` [compound 31], the IC50 is, setting by setting: under setting [1], 47 µM; under setting [4], 17 µM; under setting [2], 16 µM. With `Cc1ccc(C(=O)c2ccc(O)c(O)c2[N+](=O)[O-])cc1` [RO0614977], under setting [1], the IC50 is 154 µM. On the same count and under the same terms, the result for `O=C(c1cc(O)c(O)c([N+](=O)[O-])c1)c1ccccc1Cl` [RO0413301] reads 108 µM; that for `C=CCOC(=O)c1cccc(C(=O)c2cc(O)c(O)c([N+](=O)[O-])c2)c1` [RO0620810], 139 µM. Still for that read-out and setting: the same measure for `Cc1ccc(C(=O)C(=O)c2cc(O)c(O)c([N+](=O)[O-])c2)cc1` [RO0619291]: 128 µM; for `COC(=O)/C=C/c1cccc(C(=O)c2cc(O)c(O)c([N+](=O)[O-])c2)c1` [RO0619973]: 258 µM; for `O=C(NC1CCCCC1)c1cccc(C(=O)c2cc(O)c(O)c([N+](=O)[O-])c2)c1` [RO0626783]: 430 µM. Consider `CC(C)(C)c1ccc(C(=O)c2cc(O)c(O)c([N+](=O)[O-])c2)cc1` [RO0615662], for which half-maximal inhibition under setting [1] (IC50) was put at 144 µM. `CCCCCOC(=O)c1cccc(C(=O)c2cc(O)c(O)c([N+](=O)[O-])c2)c1` [compound 34]: the IC50 reads like this: under setting [1], 63 µM; under setting [4], 88 µM; under setting [2], 61 µM. With `C=CCOC(=O)c1ccc(C(=O)c2cc(O)c(O)c([N+](=O)[O-])c2)cc1` [compound 32], the IC50 reads like this: under setting [1], 56 µM; under setting [4], 49 µM; under setting [2], 50 µM. The molecule `O=C(OCCC(O)C(F)(F)F)c1cccc(C(=O)c2cc(O)c(O)c([N+](=O)[O-])c2)c1` (stereo not drawn) [RO0622624] returned an IC50 under setting [1] of 135 µM.

Take `CC(C)c1ccc(C(=O)c2cc(O)c(O)c([N+](=O)[O-])c2)cc1` [RO0615928]: 129 µM corresponded to half-maximal inhibition under setting [1] (IC50). In the case of `O=C(c1cccc(CO)c1)c1cc(O)c(O)c([N+](=O)[O-])c1` [RO0623430], the IC50 under setting [1] is 446 µM. Under setting [1], `O=C(c1cc(O)c(O)c([N+](=O)[O-])c1)c1cncc2ccccc12` [RO0408176] gave an IC50 of 449 µM. In turn, `COC(=O)c1ccc(C(=O)c2cc(O)c(O)c([N+](=O)[O-])c2)cc1` [RO0621265] showed an IC50 under setting [1] of 330 µM. Consider `O=C(c1ccc(F)cc1)c1cc(O)c(O)c([N+](=O)[O-])c1` [RO0407028], for which the IC50 under setting [1] worked out at 370 µM.
